Series [1] deals with OVCAR-5. In words: Inhibition of growth of OVCAR-5 ovarian cancer cell line. Particulars: Homo sapiens. It counts as functional.
Series [2] deals with CCRF-CEM. In words: Inhibition of growth of CCRF-CEM human leukemia cells (n=2). It counts as functional, cell-based.
The test system of series [3] is K562. In words: Inhibition of growth of K-562 leukemia cell line. It counts as functional. The following applies: Homo sapiens.
The test system of series [4] is U-251. Description: Inhibition of growth of U251 CNS cancer cell line. It counts as functional. The following applies: Homo sapiens.
A short description of series [5]: Inhibition of growth of IGROV1 ovarian cancer cell line. It counts as functional. The following applies: Homo sapiens, IGROV-1.
Series [6] addresses Thymidylate synthase (Homo sapiens, UniProt P04818). Description: Inhibition of recombinant human thymidylate synthase (TS).
For series [7], the system named is SW-620. In words: Inhibition of growth of SW -620 colon cancer cell line. It counts as functional. The following applies: Homo sapiens.
Series [8] has as its system SF-268. In words: Inhibition of growth of SF-268 CNS cancer cell line. It counts as functional. Particulars: Homo sapiens.
The test system of series [9] is MDA-MB-435. Description: Inhibition of growth of MDA-MB-435 breast cancer cell line. Particulars: Homo sapiens. It counts as functional.
The test system of series [10] is NCI-H460. Description: Inhibition of growth of NCI-H460 nonsmall cell lung cancer cell line. It counts as functional. Particulars: Homo sapiens.
The target in series [11] is Dihydrofolate reductase (Escherichia coli, UniProt P0ABQ4). In words: Inhibition of Escherichia coli dihydrofolate reductase (DHFR).
Chain of Dihydrofolate reductase (Escherichia coli, UniProt P0ABQ4) (P0ABQ4 whole entry): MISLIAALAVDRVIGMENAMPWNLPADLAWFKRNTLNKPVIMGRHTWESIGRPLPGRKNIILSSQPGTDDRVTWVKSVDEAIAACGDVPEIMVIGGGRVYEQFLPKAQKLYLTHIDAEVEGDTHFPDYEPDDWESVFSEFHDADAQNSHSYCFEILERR
Series [12] deals with SF-539. Description: Inhibition of growth of SF-539 CNS cancer cell line. It counts as functional. The following applies: Homo sapiens.
Series [13] concerns SK-MEL-5. Description: Inhibition of growth of SK-MEL5 melanoma cell line. It counts as functional. The following applies: Homo sapiens.
Series [14] relates to HL-60. Description: Inhibition of growth of HL-60 leukemia cell line. It counts as functional. Particulars: Homo sapiens.
Series [15] addresses Thymidylate synthase (Escherichia coli, UniProt C3SWJ7). Description: Inhibition of Escherichia coli thymidylate synthase (TS).
In series [16] the test system is MDA-N. Description: Inhibition of growth of MDA-Nbreast cancer cell line. It counts as functional. Particulars: Homo sapiens.
Series [17] has as its system A549. In words: Inhibition of growth of A549/ATCC nonsmall cell lung cancer cell line. The following applies: Homo sapiens. It counts as functional.
Series [18] in a line: Inhibition of growth of R30dm (n=2). It counts as functional, Homo sapiens.
In series [19] the test system is TK-10. In words: Inhibition of growth of TK-10 renal cancer cell line. It counts as functional. Particulars: Homo sapiens.
Series [20] relates to SR. Description: Inhibition of growth of SR leukemia cell line. It counts as functional. Particulars: Homo sapiens.
Series [21] has as its system UO-31. Description: Inhibition of growth of UO-31 renal cancer cell line. It counts as functional. Particulars: Homo sapiens.
Series [22] deals with R2. Description: Inhibition of growth of R2(n=2). It counts as functional, cell-based. The following applies: Homo sapiens.
The target of series [23] is Dihydrofolate reductase (Homo sapiens, UniProt P00374).
Chain of Dihydrofolate reductase (Homo sapiens, UniProt P00374) (P00374 whole entry): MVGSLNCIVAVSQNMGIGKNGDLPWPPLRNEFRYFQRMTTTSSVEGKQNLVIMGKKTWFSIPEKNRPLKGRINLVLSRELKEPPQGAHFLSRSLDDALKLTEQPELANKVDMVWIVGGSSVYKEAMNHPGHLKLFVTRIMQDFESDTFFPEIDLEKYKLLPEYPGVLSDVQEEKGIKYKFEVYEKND
For series [24], the system named is NCI-H522. Description: Inhibition of growth of NCI- H522 nonsmall cell lung cancer cell line. It counts as functional. The following applies: Homo sapiens.
In series [25] the test system is RPMI-8226. Description: Inhibition of growth of RPMI-8226 leukemia cell line. It counts as functional. The following applies: Homo sapiens.
For series [26], the system named is LOX IMVI. Description: Inhibition of growth of LOX IMVI melanoma cell line. It counts as functional. The following applies: Homo sapiens.
Series [27] deals with R1. Description: Inhibition of growth of R1(n=2). Particulars: Homo sapiens.
Series [28] relates to SF-295. Description: Inhibition of growth of SF-295 CNS cancer cell line. It counts as functional. The following applies: Homo sapiens.
In series [29] the test system is HT-29. Description: Inhibition of growth of HT 29colon cancer cell line. Particulars: Homo sapiens. It counts as functional.
In series [30] the test system is ACHN. Description: Inhibition of growth of ACHN renal cancer cell line. It counts as functional. The following applies: Homo sapiens.
Series [31] concerns MCF7. In words: Inhibition of growth of MCF-7 breast cancer cell line. It counts as functional. Particulars: Homo sapiens.
The test system of series [32] is HCT-15. Description: Inhibition of growth of HCT -15 colon cancer cell line. It counts as functional. Particulars: Homo sapiens.
Series [33] deals with Bifunctional dihydrofolate reductase-thymidylate synthase (Toxoplasma gondii, UniProt Q07422). In words: Inhibition of Toxoplasma gondii dihydrofolate reductase (DHFR).
Chain of Bifunctional dihydrofolate reductase-thymidylate synthase (Q07422 whole entry): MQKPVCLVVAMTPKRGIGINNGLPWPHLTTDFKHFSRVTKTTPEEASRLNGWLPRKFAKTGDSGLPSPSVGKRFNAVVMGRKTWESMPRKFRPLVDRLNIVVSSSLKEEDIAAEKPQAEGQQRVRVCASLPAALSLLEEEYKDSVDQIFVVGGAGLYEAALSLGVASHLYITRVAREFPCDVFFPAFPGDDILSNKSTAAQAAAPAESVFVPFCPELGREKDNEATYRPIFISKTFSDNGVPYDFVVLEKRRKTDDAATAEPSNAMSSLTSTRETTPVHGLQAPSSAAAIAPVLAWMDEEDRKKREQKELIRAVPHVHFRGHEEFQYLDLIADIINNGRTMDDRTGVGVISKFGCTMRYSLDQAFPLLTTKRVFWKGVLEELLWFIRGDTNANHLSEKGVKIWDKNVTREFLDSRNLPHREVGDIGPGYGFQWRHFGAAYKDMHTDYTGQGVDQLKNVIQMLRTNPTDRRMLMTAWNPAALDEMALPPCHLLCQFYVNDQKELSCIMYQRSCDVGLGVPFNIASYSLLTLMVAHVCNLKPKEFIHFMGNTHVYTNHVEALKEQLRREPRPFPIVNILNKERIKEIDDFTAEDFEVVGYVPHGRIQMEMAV
In series [34] the test system is CAKI-1. In words: Inhibition of growth of CAKI-1 renal cancer cell line. It counts as functional. The following applies: Homo sapiens.
Series [35] has as its system CCRF-CEM. Description: Inhibition of growth of CCRF-CEM leukemia cell line. It counts as functional. Particulars: Homo sapiens.
Series [36] deals with R1. Description: Inhibition of growth of R1 (n=2). Particulars: Homo sapiens.
For series [37], the system named is R2. Description: Inhibition of growth of R2 (n=2). The following applies: Homo sapiens. It counts as functional, cell-based.
Substrate in series [38]: CCC(Cc1coc2nc(N)cc(N)c12)c1ccc(C(=O)NC(CCC(=O)O)C(=O)O)cc1
In words: (§1) folyl-poly-glutamate synthetase activity measured as Km.

Substrate in series [39]: Nc1nc(N)c2nc(CNc3ccc(C(=O)N[C@@H](CCC(=O)O)C(=O)O)cc3)cnc2n1
Described as §1.

Substrate in series [40]: CCC(Cc1coc2nc(N)cc(N)c12)c1ccc(C(=O)NC(CCC(=O)O)C(=O)O)cc1
Description: folyl-poly-glutamate synthetase activity measured as Vmax.

Substrate in series [41]: Nc1nc(N)c2nc(CNc3ccc(C(=O)N[C@@H](CCC(=O)O)C(=O)O)cc3)cnc2n1
In words: folyl-poly-glutamate synthetase activity measured as Vmax; rel means relative.

Here are results for three molecules from ChEMBL document CHEMBL1135938, “Synthesis of N-[4-[1-ethyl-2-(2,4-diaminofuro[2,3-d]pyrimidin-5-yl)ethyl]benzoyl]-L-glutamic acid as an antifolate” (J Med Chem, 2002).

Chain of Thymidylate synthase (Homo sapiens, UniProt P04818) (P04818 whole entry): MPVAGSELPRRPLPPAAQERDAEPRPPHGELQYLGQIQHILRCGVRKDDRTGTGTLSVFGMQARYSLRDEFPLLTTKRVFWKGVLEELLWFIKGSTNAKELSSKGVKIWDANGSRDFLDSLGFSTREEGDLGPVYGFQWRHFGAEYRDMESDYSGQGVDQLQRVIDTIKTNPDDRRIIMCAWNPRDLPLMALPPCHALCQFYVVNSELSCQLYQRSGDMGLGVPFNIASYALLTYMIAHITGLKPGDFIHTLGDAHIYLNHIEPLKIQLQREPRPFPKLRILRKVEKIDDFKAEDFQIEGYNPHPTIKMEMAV
Chain of Thymidylate synthase (Escherichia coli, UniProt C3SWJ7) (C3SWJ7 whole entry): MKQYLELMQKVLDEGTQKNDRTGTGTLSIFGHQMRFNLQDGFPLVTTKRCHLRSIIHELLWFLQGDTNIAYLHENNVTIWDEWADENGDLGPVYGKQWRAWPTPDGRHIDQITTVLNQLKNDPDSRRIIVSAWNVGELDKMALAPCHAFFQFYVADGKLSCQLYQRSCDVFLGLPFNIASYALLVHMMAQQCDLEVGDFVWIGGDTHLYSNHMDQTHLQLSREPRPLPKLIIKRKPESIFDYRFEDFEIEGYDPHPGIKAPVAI

One may read the GI50 as the concentration that inhibits growth by half. High values mean less potent growth inhibition, low ones more potent growth inhibition. For orientation: EC50 means the concentration that produces a half-maximal response. As usually defined, the IC50 is the point on the concentration scale where inhibition reaches its midpoint. Take `CCC(Cc1coc2nc(N)cc(N)c12)c1ccc(C(=O)NC(CCC(=O)O)C(=O)O)cc1` (configuration not stated): the GI50 is less than 10 nM in series [1]; less than 10 nM in series [3]; 23.2 nM in series [4]; less than 10 nM in [5]; less than 10 nM in series [7]; less than 10 nM in series [8]. The GI50 in series [9] is less than 10 nM; in series [10], less than 10 nM; in series [12], less than 10 nM; in series [13], 81.8 nM; in series [14] it was less than 10 nM; in series [16], less than 10 nM. Further, the GI50 is 13.8 nM in [17]; 340 nM in series [19]; less than 10 nM in series [20]; less than 10 nM in series [21]; less than 10 nM in series [24]; less than 10 nM in series [25]. In addition, the GI50 was 23.7 nM in [26]; less than 10 nM in series [28]; 23.9 nM in [29]; less than 10 nM in series [30]; less than 10 nM in series [31]; less than 10 nM in series [32]. Besides, the concentration for 50% growth inhibition (GI50) in [34] and in [35] was less than 10 nM throughout. Further, the EC50 came to 35.5 nM in series [2], 50 nM in series [18], 890 nM in series [22] and 2100 nM in [27]. Also, the IC50 in series [6] turned out to be 220000 nM; in series [11], 440 nM; in [15] it was 220000 nM; in series [23], 220 nM; in series [33], 1100 nM.
As to `CN(Cc1cnc2nc(N)nc(N)c2n1)c1ccc(C(=O)N[C@@H](CCC(=O)O)C(=O)O)cc1` [METHOTREXATE], the EC50 in series [36] stood at 1050 nM; in series [18] it was 15 nM; in [37], 2600 nM.

B1: Folylpolyglutamate synthase, mitochondrial (Homo sapiens), Q05932 (protein)
chain: MSRARSHLRAALFLAAASARGITTQVAARRGLSAWPVPQEPSMEYQDAVRMLNTLQTNAGYLEQVKRQRGDPQTQLEAMELYLARSGLQVEDLDRLNIIHVTGTKGKGSTCAFTECILRSYGLKTGFFSSPHLVQVRERIRINGQPISPELFTKYFWRLYHRLEETKDGSCVSMPPYFRFLTLMAFHVFLQEKVDLAVVEVGIGGAYDCTNIIRKPVVCGVSSLGIDHTSLLGDTVEKIAWQKGGIFKQGVPAFTVLQPEGPLAVLRDRAQQISCPLYLCPMLEALEEGGPPLTLGLEGEHQRSNAALALQLAHCWLQRQDRHGAGEPKASRPGLLWQLPLAPVFQPTSHMRLGLRNTEWPGRTQVLRRGPLTWYLDGAHTASSAQACVRWFRQALQGRERPSGGPEVRVLLFNATGDRDPAALLKLLQPCQFDYAVFCPNLTEVSSTGNADQQNFTVTLDQVLLRCLEHQQHWNHLDEEQASPDLWSAPSPEPGGSASLLLAPHPPHTCSASSLVFSCISHALQWISQGRDPIFQPPSPPKGLLTHPVAHSGASILREAAAIHVLVTGSLHLVGGVLKLLEPALSQ
For orientation: Km means the substrate concentration at which the rate is half of its maximum. As for B1, the Km in series [38] was found to be 1.1 µM; in series [39], 3.2 µM. For the same molecule, the Vmax in series [40] was determined as 0.37 rel; in series [41], 1 rel.
